Data: patent US11071731B2, “Allosteric modulators of the mu opioid receptor” (Chiromics, LLC, priority 2017, dated 2021)

What was measured:
[1] = target: T1, mu opioid receptor (MOR) (Homo sapiens, UniProt P35372); assay: PathHunter β-arrestin recruitment assay, PAM mode with EC20 endomorphin-1; type: cell-based; settings: for allosteric activity for β-arrestin recruitment: EC20 endomorphin-1 concentration of 4.5 nM
In short: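 β-Arrestin recruitment to the receptor was tracked by chemiluminescent β-galactosidase activity from complementing fragments (ED on receptor, EA on β-arrestin). Per-compound outputs were EC50 and percent maximal response.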

[2] = target: T1, mu opioid receptor (MOR); assay: Hit Hunter cAMP signaling assay (adenylyl cyclase inhibition), PAM mode with EC20 endomorphin-1; type: cell-based; settings: for allosteric activity for cAMP signaling: EC20 endomorphin-1 concentration of 0.45 nM; for Max. Response: cAMP
[3] = target: mu opioid receptor subtype OPRM1 (Homo sapiens, UniProt P35372); assay: β-arrestin recruitment assay, antagonist format; type: cell-based; settings: Table 18
mu opioid receptor subtype OPRM1, sequence (P35372 whole entry, the tested form may be a part): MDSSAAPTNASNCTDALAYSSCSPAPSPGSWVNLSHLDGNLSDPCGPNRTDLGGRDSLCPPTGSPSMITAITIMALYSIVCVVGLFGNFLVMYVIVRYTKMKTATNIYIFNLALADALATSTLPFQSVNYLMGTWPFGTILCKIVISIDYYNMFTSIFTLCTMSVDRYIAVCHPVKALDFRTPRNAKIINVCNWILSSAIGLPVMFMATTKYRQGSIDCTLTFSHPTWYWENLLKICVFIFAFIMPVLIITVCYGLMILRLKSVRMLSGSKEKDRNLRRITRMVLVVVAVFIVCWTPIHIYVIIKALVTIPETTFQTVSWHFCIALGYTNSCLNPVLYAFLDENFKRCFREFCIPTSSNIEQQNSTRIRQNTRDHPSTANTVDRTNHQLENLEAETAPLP
Method: Beta-Arrestin Pathway: The PathHunter β-arrestin assay monitors the activation of a GPCR in a homogenous, non-imaging assay format using a technology developed by DiscoveRx called Enzyme Fragment Complementation (EFC) with beta-galactosidase (β-Gal) as the functional reporter. […] EA is fused to β-Arrestin and ED is fused to the GPCR of interest. When the GPCR is activated and β-arrestin is recruited to the receptor, ED and EA complementation occurs, restoring β-gal activity, which is measured using chemiluminescent PathHunter Detection Reagents.
Similar results were obtained when agonist and antagonist activity were assayed using cAMP signaling as the readout.

[4] = target: T2, MOR (Homo sapiens, UniProt P35372); assay: cell-based; settings: EC20 morphine agonism of MOR; for EC50: RC50, β-arrestin; for Max. Response: β-arrestin
T2 sequence (P35372 whole entry): as the sequence (P35372 whole entry, the tested form may be a part) above

[5] = target: T2, MOR; assay: cell-based; settings: EC20 morphine agonism of MOR; for EC50: RC50, cAMP; for Max. Response: cAMP
[6] = target: T2, MOR; assay: cell-based; settings: EC20 Oxycodone agonism of MOR; for EC50: RC50, β-arrestin; for Max. Response: β-arrestin
[7] = target: T2, MOR; assay: cell-based; settings: EC20 Oxycodone agonism of MOR; for EC50: RC50, cAMP; for Max. Response: cAMP
[8] = maximal response for β-arrestin recruitment
[9] = β-arrestin recruitment, read-out: β-arr. EC50
[10] = adenylyl cyclase inhibition, read-out: cAMP EC50
[11] = maximal response for adenylyl cyclase inhibition
[12] = β-arrestin, EC20 EM-1 agonism of MOR
[13] = β-arrestin, EC20 EM-1 agonism of MOR, read-out: RC50 (the source's name)
[14] = RC50, cAMP, EC20 EM-1 agonism of MOR
[15] = cAMP EC50, adenylyl cyclase inhibition

T1 sequence (P35372 whole entry, the tested form may be a part): as above

| SMILES | β-arr Max. Resp. [1, 8] | EC50 [1, 9] [nM] | EC50 [2, 10] [nM] | cAMP Max. Resp. [2, 11] | EC50 [2, 15] [nM] | other results |
| --- | --- | --- | --- | --- | --- | --- |
| COc1ccc(C2C(C(F)(F)F)CCN2S(=O)(=O)c2ccc(Cl)cc2)cc1Br (single isomer, unassigned) [Compound 108] | F (F represents a maximal response of > 60%) | > 2100 | > 2100 | E (E represents a maximal response of 40-60%) |  | allosteric activity for β-arrestin recruitment [1]: moderate positive allosteric effect; allosteric activity for cAMP signaling [2]: moderate positive allosteric effect; IC50 [3]: > 25 µM |
| Fc1cnc(Cl)nc1N1CCCCC1c1cccc(C(F)(F)F)c1 (single isomer, unassigned) [compound 8] | F (F represents a maximal response of > 60%) | < 700 |  | F (F represents a maximal response of > 60%) | 700 to 2100 | Max. Response [1, 12]: 213; EC50 [1, 13]: 330 nM; EC50 [2, 14]: 840 nM; Max. Response ([2]; EC20 EM-1 agonism of MOR): 76; EC50 [4]: 7110 nM; Max. Response [4]: 487; EC50 [5]: 2000 nM; Max. Response [5]: 44; EC50 [6]: 12900 nM; Max. Response [6]: 343; EC50 [7]: 1910 nM; Max. Response [7]: 56 |
| COc1ccc(C2C3CCC(C3)N2S(=O)(=O)c2ccc(Cl)cc2)cc1Br (stereo not shown) [Compound 177] | F (F represents a maximal response of > 60%) | > 2100 | > 2100 | E (E represents a maximal response of 40-60%) |  | allosteric activity for β-arrestin recruitment [1]: moderate positive allosteric effect; allosteric activity for cAMP signaling [2]: moderate positive allosteric effect; IC50 [3]: > 25 µM |
| Fc1cnc(Cl)nc1N1CCCCC1c1cccc(C(F)(F)F)n1 (stereo not shown) [compound 123] | F (F represents a maximal response of > 60%) | 700 to 2100 |  | E (E represents a maximal response of 40-60%) | < 700 | Max. Response [1, 12]: 190; EC50 [1, 13]: 1020 nM; EC50 [2, 14]: 590 nM; Max. Response ([2]; EC20 EM-1 agonism of MOR): 43; EC50 [4]: 14100 nM; Max. Response [4]: 59; EC50 [5]: > 25000 nM; Max. Response [5]: 0; EC50 [6]: > 25000 nM; Max. Response [6]: 17; EC50 [7]: > 25000 nM; Max. Response [7]: 0 |
| Cc1ccc(C2CCCCN2c2nc(Cl)ncc2F)cc1Br (stereo not shown) [compound 281] | F (F represents a maximal response of > 60%) | 700 to 2100 |  | D (D represents a maximal response of < 40%) | < 700 |  |
| COc1ccc(C2CC(C)CN2S(=O)(=O)c2ccc(Cl)cc2)cc1Br (single isomer, unassigned) [Compound 118] | E (E represents a maximal response of 40-60%) | 700 to 2100 | > 2100 | D (D represents a maximal response of < 40%) |  |  |
| O=S(=O)(c1cccc(Cl)c1F)N1CCCCC1c1cccc(C(F)(F)F)c1 (stereo not shown) [Compound 28] | F (F represents a maximal response of > 60%) | 700 to 2100 | 700 to 2100 | D (D represents a maximal response of < 40%) |  |  |
| COc1ccc(C2CCCCN2c2cncc(C(F)(F)F)n2)cc1Br (stereo not shown) [compound 230] | F (F represents a maximal response of > 60%) | > 2100 |  | F (F represents a maximal response of > 60%) | > 2100 |  |
| Fc1ccc(Cl)cc1CN1C2CCC(C2)C1c1cccc(C(F)(F)F)n1 (stereo not shown) [compound 444] |  | > 2100 |  |  | > 2100 | β-arr Max. Resp. ([1]; maximal response, β-arrestin recruitment): F (F represents a maximal response of > 60%); cAMP Max. Resp. ([2]; maximal response, adenylyl cyclase inhibition): D (D represents a maximal response of < 40%) |
| Fc1cnc(Cl)nc1N1CCOCC1c1cccc(C(F)(F)F)c1 (racemic) [Compound 188] | F (F represents a maximal response of > 60%) | > 2100 | 700 to 2100 | E (E represents a maximal response of 40-60%) |  |  |
